According to ChEMBL document CHEMBL1909046, “DrugMatrix in vitro pharmacology data”:

Tests used:
Progesterone receptor = molecular target: T1, Progesterone receptor (Bos taurus, UniProt Q690N0); experiment: DRUGMATRIX: Progesterone radioligand binding (ligand: [3H] R-5020); type: tissue-based, Uterus; details: Not Active = under 50% inhibition at 10 µM
T1 sequence (Q690N0 whole entry): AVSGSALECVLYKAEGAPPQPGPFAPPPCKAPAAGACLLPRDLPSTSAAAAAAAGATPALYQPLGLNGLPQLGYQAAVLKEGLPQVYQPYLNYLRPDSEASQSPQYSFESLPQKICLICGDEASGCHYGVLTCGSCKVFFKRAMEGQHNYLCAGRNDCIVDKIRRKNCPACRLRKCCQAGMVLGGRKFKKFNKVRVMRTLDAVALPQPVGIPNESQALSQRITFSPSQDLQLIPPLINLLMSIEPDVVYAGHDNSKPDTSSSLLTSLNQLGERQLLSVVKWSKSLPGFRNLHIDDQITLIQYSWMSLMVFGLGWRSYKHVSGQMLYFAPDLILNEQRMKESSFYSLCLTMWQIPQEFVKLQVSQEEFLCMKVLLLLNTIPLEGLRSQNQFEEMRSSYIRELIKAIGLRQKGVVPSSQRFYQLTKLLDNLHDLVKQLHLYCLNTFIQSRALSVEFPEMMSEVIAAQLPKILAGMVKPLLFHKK

[1] = molecular target: Sigma non-opioid intracellular receptor 1 (Homo sapiens, UniProt Q99720); experiment: DRUGMATRIX: Sigma1 radioligand binding (ligand: [3H] Haloperidol); type: cell membranes, Jurkat, Membrane; details: jurkat; Not Active = under 50% inhibition at 10 µM
Chain of Sigma non-opioid intracellular receptor 1 (Q99720 whole entry): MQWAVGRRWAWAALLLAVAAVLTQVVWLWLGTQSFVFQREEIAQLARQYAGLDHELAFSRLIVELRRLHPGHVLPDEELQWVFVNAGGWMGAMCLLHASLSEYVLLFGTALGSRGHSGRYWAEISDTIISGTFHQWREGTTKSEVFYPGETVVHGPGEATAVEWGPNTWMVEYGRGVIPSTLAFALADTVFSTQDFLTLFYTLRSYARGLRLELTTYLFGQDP

[2] = molecular target: C-C chemokine receptor type 2 (Homo sapiens, UniProt P41597); type: cell membranes, CHO-K1, Membrane; details: cho-k1; note: in other assays of this panel Not Active means under 50% inhibition at 10 µM
Chain of C-C chemokine receptor type 2 (P41597 whole entry): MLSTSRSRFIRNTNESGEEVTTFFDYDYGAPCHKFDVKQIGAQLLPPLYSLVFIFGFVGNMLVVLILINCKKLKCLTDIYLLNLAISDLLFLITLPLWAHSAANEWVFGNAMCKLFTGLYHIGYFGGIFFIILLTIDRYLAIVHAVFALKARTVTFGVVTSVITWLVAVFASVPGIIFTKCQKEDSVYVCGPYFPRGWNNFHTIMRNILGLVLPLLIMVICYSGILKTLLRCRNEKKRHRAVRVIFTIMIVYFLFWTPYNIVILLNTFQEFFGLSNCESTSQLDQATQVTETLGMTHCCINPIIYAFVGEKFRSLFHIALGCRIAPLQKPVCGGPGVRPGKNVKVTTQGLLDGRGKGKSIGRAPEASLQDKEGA

[3] = molecular target: Protein phosphatase 3 catalytic subunit alpha (Homo sapiens, UniProt Q08209); parameters: species or system Escherichia coli;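 note: inhibition of calcineurin (PP2B) enzyme activity, measured with DiFMUP as the substrate; in other assays of this panel Not Active means under 50% inhibition at 10 µM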
[4] = molecular target: T2, Neuropeptide Y receptor type 2 (Homo sapiens, UniProt P49146); type: cell membranes, Membrane; details: kan-ts; note: in other assays of this panel Not Active means under 50% inhibition at 10 µM
T2 sequence (P49146 whole entry): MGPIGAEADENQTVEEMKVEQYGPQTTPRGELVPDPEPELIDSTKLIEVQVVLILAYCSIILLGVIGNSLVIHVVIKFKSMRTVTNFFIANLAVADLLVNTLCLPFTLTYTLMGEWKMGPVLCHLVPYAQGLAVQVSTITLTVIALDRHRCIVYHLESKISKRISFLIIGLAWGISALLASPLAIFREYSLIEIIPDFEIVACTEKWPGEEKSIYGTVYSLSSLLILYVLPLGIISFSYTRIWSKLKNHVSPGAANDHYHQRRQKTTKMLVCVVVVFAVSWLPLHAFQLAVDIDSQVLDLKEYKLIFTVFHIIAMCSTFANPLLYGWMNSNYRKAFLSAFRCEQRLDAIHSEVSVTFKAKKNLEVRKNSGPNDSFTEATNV

[5] = DRUGMATRIX: Imidazoline I2, Central radioligand binding (ligand: [3H] Idazoxan); type: cell membranes, Rattus norvegicus, Wistar, Cerebral cortex, Membrane; details: Not Active = under 50% inhibition at 10 µM
[6] = molecular target: 5-hydroxytryptamine receptor 2B (Homo sapiens, UniProt P41595); type: cell membranes, CHO-K1, Membrane; details: cho-k1; note: in other assays of this panel Not Active means under 50% inhibition at 10 µM
Chain of 5-hydroxytryptamine receptor 2B (P41595 whole entry): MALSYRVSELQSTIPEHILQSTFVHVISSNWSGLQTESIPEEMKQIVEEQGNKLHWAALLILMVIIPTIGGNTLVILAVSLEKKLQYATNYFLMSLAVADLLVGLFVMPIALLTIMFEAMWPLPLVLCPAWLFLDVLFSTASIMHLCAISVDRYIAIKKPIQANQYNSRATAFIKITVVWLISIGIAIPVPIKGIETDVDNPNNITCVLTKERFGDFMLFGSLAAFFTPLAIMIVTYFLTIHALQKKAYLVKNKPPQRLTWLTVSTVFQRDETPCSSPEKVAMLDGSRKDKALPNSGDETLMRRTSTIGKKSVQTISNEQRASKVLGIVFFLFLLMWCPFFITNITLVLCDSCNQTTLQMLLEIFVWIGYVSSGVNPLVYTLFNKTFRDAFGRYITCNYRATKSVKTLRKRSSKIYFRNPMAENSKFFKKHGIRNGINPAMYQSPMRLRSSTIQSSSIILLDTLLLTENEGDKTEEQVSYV

[7] = DRUGMATRIX: Phosphodiesterase PDE4 enzyme inhibition (substrate: [3H]cAMP + cAMP); details: u-937, Not Active = under 50% inhibition at 10 µM
[8] = molecular target: Platelet-activating factor receptor (Homo sapiens, UniProt P25105); experiment: biochemical; type: tissue-based; details: platelet; note: in other assays of this panel Not Active means under 50% inhibition at 10 µM
Chain of Platelet-activating factor receptor (P25105 whole entry): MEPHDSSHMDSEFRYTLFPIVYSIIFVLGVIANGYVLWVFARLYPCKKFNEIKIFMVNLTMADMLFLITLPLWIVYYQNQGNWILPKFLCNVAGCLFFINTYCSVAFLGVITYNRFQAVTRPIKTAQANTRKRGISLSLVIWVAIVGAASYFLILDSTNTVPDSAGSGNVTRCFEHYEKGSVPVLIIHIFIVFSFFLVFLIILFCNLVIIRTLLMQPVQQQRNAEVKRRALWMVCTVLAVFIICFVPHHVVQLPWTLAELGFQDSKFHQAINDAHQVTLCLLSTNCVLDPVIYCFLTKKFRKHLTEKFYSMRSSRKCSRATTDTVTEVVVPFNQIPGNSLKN

Acetylcholinesterase = Acetylcholinesterase (Homo sapiens, UniProt P22303); experiment: DRUGMATRIX: Acetylcholinesterase enzyme inhibition (substrate: acetylthiocholine); type: cell-based, HEK293; details: Not Active = under 50% inhibition at 10 µM
Chain of Acetylcholinesterase (P22303 whole entry): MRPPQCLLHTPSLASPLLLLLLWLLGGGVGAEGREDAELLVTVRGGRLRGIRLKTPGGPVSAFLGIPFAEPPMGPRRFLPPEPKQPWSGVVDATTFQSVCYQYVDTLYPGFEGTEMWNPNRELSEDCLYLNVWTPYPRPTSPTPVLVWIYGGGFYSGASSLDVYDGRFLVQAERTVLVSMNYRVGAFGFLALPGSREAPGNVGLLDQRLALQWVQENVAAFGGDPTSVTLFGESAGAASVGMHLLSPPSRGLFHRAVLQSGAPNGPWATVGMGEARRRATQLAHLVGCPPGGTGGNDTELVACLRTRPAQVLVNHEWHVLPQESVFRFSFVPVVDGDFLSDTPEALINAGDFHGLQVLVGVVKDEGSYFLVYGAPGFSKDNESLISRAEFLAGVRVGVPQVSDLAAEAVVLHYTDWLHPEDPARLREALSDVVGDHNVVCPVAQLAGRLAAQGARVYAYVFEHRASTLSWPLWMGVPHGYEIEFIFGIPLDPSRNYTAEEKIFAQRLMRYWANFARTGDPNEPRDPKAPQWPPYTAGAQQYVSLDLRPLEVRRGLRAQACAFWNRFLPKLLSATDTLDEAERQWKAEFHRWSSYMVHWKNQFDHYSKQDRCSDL

Adenosine receptor A2a = Adenosine receptor A2a (Homo sapiens, UniProt P29274); experiment: DRUGMATRIX: Adenosine A2A radioligand binding (ligand: […]); type: cell membranes, HEK293, Membrane; details: Not Active = under 50% inhibition at 10 µM
Chain of Adenosine receptor A2a (P29274 whole entry): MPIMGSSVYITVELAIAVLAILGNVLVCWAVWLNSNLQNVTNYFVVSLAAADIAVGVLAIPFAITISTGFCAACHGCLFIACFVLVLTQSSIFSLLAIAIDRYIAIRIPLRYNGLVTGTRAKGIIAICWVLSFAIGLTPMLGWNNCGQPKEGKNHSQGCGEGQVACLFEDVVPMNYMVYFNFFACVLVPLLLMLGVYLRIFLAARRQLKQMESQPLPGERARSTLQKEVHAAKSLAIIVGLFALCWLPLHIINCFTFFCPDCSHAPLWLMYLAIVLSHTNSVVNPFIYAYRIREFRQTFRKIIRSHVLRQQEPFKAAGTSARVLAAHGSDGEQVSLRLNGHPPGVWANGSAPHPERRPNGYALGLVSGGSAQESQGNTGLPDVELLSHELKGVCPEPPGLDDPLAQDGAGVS

[9] = molecular target: T3, 3-hydroxy-3-methylglutaryl-coenzyme A reductase (Homo sapiens, UniProt P04035); parameters: species or system Escherichia coli
T3 sequence (P04035 whole entry): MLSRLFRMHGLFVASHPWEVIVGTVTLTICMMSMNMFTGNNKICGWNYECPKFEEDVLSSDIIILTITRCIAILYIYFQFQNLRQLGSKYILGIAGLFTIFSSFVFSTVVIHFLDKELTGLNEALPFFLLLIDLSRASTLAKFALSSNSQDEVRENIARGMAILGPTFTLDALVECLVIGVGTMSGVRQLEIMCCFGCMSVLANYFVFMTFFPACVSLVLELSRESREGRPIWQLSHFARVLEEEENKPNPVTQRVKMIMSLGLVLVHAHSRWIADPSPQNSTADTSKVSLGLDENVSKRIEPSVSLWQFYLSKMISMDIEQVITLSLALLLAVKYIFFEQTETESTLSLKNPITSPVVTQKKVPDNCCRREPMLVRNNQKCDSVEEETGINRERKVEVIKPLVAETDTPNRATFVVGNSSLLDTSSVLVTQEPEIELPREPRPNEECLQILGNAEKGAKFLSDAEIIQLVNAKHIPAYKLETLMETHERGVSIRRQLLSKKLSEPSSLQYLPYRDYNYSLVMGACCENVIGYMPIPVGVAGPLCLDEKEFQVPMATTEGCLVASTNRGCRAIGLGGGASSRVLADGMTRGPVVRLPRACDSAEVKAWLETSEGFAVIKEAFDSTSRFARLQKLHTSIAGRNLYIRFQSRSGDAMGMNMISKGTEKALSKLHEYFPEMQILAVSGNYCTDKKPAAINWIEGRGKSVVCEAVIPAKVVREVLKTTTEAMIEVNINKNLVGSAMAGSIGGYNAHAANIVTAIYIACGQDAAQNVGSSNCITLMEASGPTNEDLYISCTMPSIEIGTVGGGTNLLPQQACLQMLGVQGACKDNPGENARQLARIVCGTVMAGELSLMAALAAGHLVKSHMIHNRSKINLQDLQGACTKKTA

Row | SMILES | IC50 (Progesterone receptor) | IC50 [1] | IC50 [2] | IC50 [3] | IC50 [4] | IC50 [5] | Ki [5] | IC50 [6] | IC50 [7] | Ki [7] | IC50 [8] | IC50 (Acetylcholinesterase; hek293) | IC50 (Adenosine receptor A2a; hek293) | IC50 [9] | IC50 (Acetylcholinesterase; read-out: IC50) [µM] | IC50 ([7]; read-out: IC50) [nM] | IC50 (Adenosine receptor A2a; read-out: IC50) [nM] | Ki (Adenosine receptor A2a; read-out: Ki) [nM]
1 | COc1ccc2cc(CC(=O)O)ccc2c1 | Not Active | Not Active | Not Active | Not Active | Not Active | Not Active | Not Active | Not Active | Not Active | Not Active | Not Active | Not Active | Not Active | Not Active | – | – | – | –
2 | CC(C)NC[C@H](O)COc1cccc2[nH]ccc12 | – | Not Active | Not Active | Not Active | Not Active | Not Active | Not Active | Not Active | Not Active | Not Active | Not Active | Not Active | Not Active | Not Active | – | – | – | –
3 | c1ccc2c(c1)cc1ccc3cccc4ccc2c1c34 | Not Active | Not Active | Not Active | Not Active | Not Active | Not Active | Not Active | Not Active | Not Active | Not Active | Not Active | – | Not Active | Not Active | 28 | – | – | –
4 | CC=CC(=O)N(CC)c1ccccc1C | Not Active | Not Active | Not Active | Not Active | Not Active | Not Active | Not Active | Not Active | Not Active | Not Active | Not Active | Not Active | Not Active | Not Active | – | – | – | –
5 | C=C1C(=O)O[C@@H]2C3O[C@]3(C)CC/C=C(\C)CC[C@@H]12 (some centres not stated) | Not Active | Not Active | Not Active | Not Active | Not Active | Not Active | Not Active | Not Active | Not Active | Not Active | Not Active | Not Active | Not Active | Not Active | – | – | – | –
6 | CC(/C=C1\SC(=S)N(CC(=O)O)C1=O)=C\c1ccccc1 | Not Active | Not Active | Not Active | Not Active | Not Active | Not Active | Not Active | Not Active | Not Active | Not Active | Not Active | Not Active | Not Active | Not Active | – | – | – | –
7 | CCCCCCCCCc1ccc(O)cc1 [4-NONYLPHENOL] | Not Active | Not Active | Not Active | Not Active | Not Active | Not Active | Not Active | Not Active | Not Active | Not Active | Not Active | Not Active | Not Active | Not Active | – | – | – | –
8 | Cc1[nH]cnc1CN1CCc2c(c3ccccc3n2C)C1=O [ALOSETRON] | Not Active | Not Active | Not Active | Not Active | Not Active | Not Active | Not Active | – | Not Active | Not Active | Not Active | Not Active | Not Active | Not Active | – | – | – | –
9 | O=c1cc(-c2ccccc2)oc2c1ccc1ccccc12 [ALPHA-NAPHTHOFLAVONE] | Not Active | – | Not Active | Not Active | Not Active | Not Active | Not Active | Not Active | – | – | Not Active | Not Active | Not Active | Not Active | – | 2920 | – | –
10 | Oc1c(Cl)cc(Cl)cc1Sc1cc(Cl)cc(Cl)c1O [BITHIONOL] | Not Active | Not Active | Not Active | Not Active | Not Active | Not Active | Not Active | – | Not Active | Not Active | Not Active | Not Active | – | Not Active | – | – | 1170 | 655
11 | C/C=C1\[C@H]2C=C(C)C[C@]1(N)c1ccc(=O)[nH]c1C2 [HUPERZINE A] | Not Active | Not Active | Not Active | Not Active | Not Active | Not Active | Not Active | Not Active | Not Active | Not Active | Not Active | – | Not Active | Not Active | – | – | – | –
12 | CNC(=O)Oc1ccc2c(c1)[C@]1(C)CCN(C)[C@@H]1N2C [PHYSOSTIGMINE] | Not Active | Not Active | Not Active | Not Active | Not Active | Not Active | Not Active | Not Active | Not Active | Not Active | Not Active | – | Not Active | Not Active | – | – | – | –
